Source: the NIST ThermoML archive (doi:10.1021/je700260f)

Details: Liquid, Vibrating tube method

FC(C(F)(F)F)C(F)(F)F [1,1,1,2,3,3,3-heptafluoropropane]
Details | mass density [kg/m3]
313.15 K, 33848 kPa | 1503.2
313.15 K, 33888 kPa | 1503.3
313.15 K, 33928 kPa | 1503.5
313.15 K, 33981 kPa | 1503.8
313.15 K, 34027 kPa | 1503.8
313.15 K, 34060 kPa | 1503.9
313.15 K, 34100 kPa | 1504
313.15 K, 34136 kPa | 1504.1
313.15 K, 34171 kPa | 1504.4
313.15 K, 34201 kPa | 1504.5
313.15 K, 34232 kPa | 1504.6
313.15 K, 34269 kPa | 1504.6
313.15 K, 34305 kPa | 1504.8
313.15 K, 34336 kPa | 1504.7
313.15 K, 34374 kPa | 1505
313.15 K, 34408 kPa | 1505.1
313.15 K, 34430 kPa | 1505.2
313.15 K, 34451 kPa | 1505.2
313.15 K, 34461 kPa | 1505.2
313.15 K, 34473 kPa | 1505.2
313.15 K, 34482 kPa | 1505.4
313.15 K, 34489 kPa | 1505.4
313.16 K, 1420 kPa | 1328.8
313.16 K, 1448 kPa | 1329.3
313.16 K, 9648 kPa | 1395.4
313.16 K, 9676 kPa | 1395.6
313.16 K, 9701 kPa | 1395.7
313.16 K, 9733 kPa | 1395.9
313.16 K, 9768 kPa | 1396.1
313.16 K, 9796 kPa | 1396.4
313.16 K, 10034 kPa | 1397.9
313.16 K, 11599 kPa | 1407.5
313.16 K, 11650 kPa | 1407.8
313.16 K, 16202 kPa | 1432.4
313.16 K, 16267 kPa | 1432.9
313.16 K, 16535 kPa | 1434.1
313.16 K, 16676 kPa | 1434.8
313.16 K, 16775 kPa | 1435.3
313.16 K, 21124 kPa | 1455.4
313.16 K, 21173 kPa | 1455.5
313.16 K, 23260 kPa | 1464.4
313.16 K, 23309 kPa | 1464.6
313.16 K, 23346 kPa | 1464.7
313.16 K, 25084 kPa | 1471.9
313.16 K, 25125 kPa | 1471.9
313.16 K, 25173 kPa | 1472.1
323.13 K, 960 kPa | 1272.4
323.13 K, 990 kPa | 1272.7
323.13 K, 1310 kPa | 1277.3
323.13 K, 1540 kPa | 1280.5
323.13 K, 1600 kPa | 1281.2
323.13 K, 1800 kPa | 1283.9
323.13 K, 1820 kPa | 1284.2
323.13 K, 1840 kPa | 1284.5
323.13 K, 2040 kPa | 1287.1
323.13 K, 2060 kPa | 1287.3
323.13 K, 2080 kPa | 1287.6
323.13 K, 2100 kPa | 1287.9
323.13 K, 2120 kPa | 1288.2
323.13 K, 2140 kPa | 1288.3
323.13 K, 2160 kPa | 1288.7
323.13 K, 2180 kPa | 1288.9
323.13 K, 2190 kPa | 1289.2
323.13 K, 2220 kPa | 1289.2
323.13 K, 2230 kPa | 1289.4
323.13 K, 2250 kPa | 1289.8
323.13 K, 2270 kPa | 1290
323.13 K, 3000 kPa | 1298.9
323.13 K, 3030 kPa | 1299.3
323.13 K, 3090 kPa | 1299.8
323.13 K, 3110 kPa | 1300.2
323.13 K, 3130 kPa | 1300.3
323.13 K, 3150 kPa | 1300.6
323.13 K, 3180 kPa | 1300.8
323.13 K, 3200 kPa | 1301.3
323.13 K, 3230 kPa | 1301.4
323.13 K, 3250 kPa | 1301.7
323.13 K, 3270 kPa | 1301.9
323.13 K, 3290 kPa | 1302.2
323.13 K, 4770 kPa | 1317.9
323.13 K, 4790 kPa | 1318.1
323.13 K, 4820 kPa | 1318.3
323.13 K, 4850 kPa | 1318.7
323.13 K, 4880 kPa | 1318.9
323.13 K, 4900 kPa | 1319.2
323.13 K, 4920 kPa | 1319.4
323.13 K, 6440 kPa | 1333.7
323.13 K, 6489 kPa | 1334.1
323.13 K, 6508 kPa | 1334
323.13 K, 6533 kPa | 1334.5
323.13 K, 6605 kPa | 1335.1
323.13 K, 6623 kPa | 1335.3
323.13 K, 6650 kPa | 1335.4
323.13 K, 6668 kPa | 1335.7
323.13 K, 6696 kPa | 1335.8
323.13 K, 6716 kPa | 1336
323.13 K, 6734 kPa | 1336.3
323.13 K, 6759 kPa | 1336.4
323.13 K, 7026 kPa | 1338.8
323.14 K, 920 kPa | 1271.8
323.14 K, 940 kPa | 1272.1
323.14 K, 1020 kPa | 1273.1
323.14 K, 1040 kPa | 1273.4
323.14 K, 1060 kPa | 1273.7
323.14 K, 1070 kPa | 1274.1
323.14 K, 1090 kPa | 1274.2
323.14 K, 1110 kPa | 1274.5
323.14 K, 1130 kPa | 1274.7
323.14 K, 1140 kPa | 1275.1
323.14 K, 1170 kPa | 1275.4
323.14 K, 1180 kPa | 1275.5
323.14 K, 1200 kPa | 1275.9
323.14 K, 1220 kPa | 1276
323.14 K, 1240 kPa | 1276.4
323.14 K, 1260 kPa | 1276.7
323.14 K, 1290 kPa | 1276.9
323.14 K, 1330 kPa | 1277.6
323.14 K, 1350 kPa | 1277.8
323.14 K, 1370 kPa | 1278.2
323.14 K, 1390 kPa | 1278.3
323.14 K, 1410 kPa | 1278.7
323.14 K, 1420 kPa | 1278.8
323.14 K, 1450 kPa | 1279.2
323.14 K, 1470 kPa | 1279.6
323.14 K, 1500 kPa | 1279.9
323.14 K, 1520 kPa | 1280.1
323.14 K, 1550 kPa | 1280.6
323.14 K, 1580 kPa | 1281.1
323.14 K, 1610 kPa | 1281.4
323.14 K, 1630 kPa | 1281.6
323.14 K, 1640 kPa | 1282
323.14 K, 1670 kPa | 1282.1
323.14 K, 1690 kPa | 1282.5
323.14 K, 1710 kPa | 1282.7
323.14 K, 1730 kPa | 1283.1
323.14 K, 1750 kPa | 1283.3
323.14 K, 1780 kPa | 1283.7
323.14 K, 1860 kPa | 1284.7
323.14 K, 1880 kPa | 1285
323.14 K, 1900 kPa | 1285.3
323.14 K, 1920 kPa | 1285.4
323.14 K, 1940 kPa | 1285.8
323.14 K, 1960 kPa | 1285.9
323.14 K, 1980 kPa | 1286.3
323.14 K, 2000 kPa | 1286.6
323.14 K, 2020 kPa | 1286.8
323.14 K, 2290 kPa | 1290.2
323.14 K, 2310 kPa | 1290.6
323.14 K, 2330 kPa | 1290.7
323.14 K, 2350 kPa | 1291
323.14 K, 2380 kPa | 1291.3
323.14 K, 2390 kPa | 1291.5
323.14 K, 2410 kPa | 1291.7
323.14 K, 2430 kPa | 1291.9
323.14 K, 2450 kPa | 1292.3
323.14 K, 2480 kPa | 1292.4
323.14 K, 2500 kPa | 1292.9
323.14 K, 2530 kPa | 1293.2
323.14 K, 2560 kPa | 1293.6
323.14 K, 2570 kPa | 1293.8
323.14 K, 2600 kPa | 1294
323.14 K, 2610 kPa | 1294.3
323.14 K, 2630 kPa | 1294.4
323.14 K, 2650 kPa | 1294.8
323.14 K, 2670 kPa | 1295
323.14 K, 2830 kPa | 1296.9
323.14 K, 2890 kPa | 1297.6
323.14 K, 2920 kPa | 1297.7
323.14 K, 2940 kPa | 1298.3
323.14 K, 2960 kPa | 1298.4
323.14 K, 2980 kPa | 1298.6
323.14 K, 3060 kPa | 1299.4
323.14 K, 3310 kPa | 1302.4
323.14 K, 3340 kPa | 1302.7
323.14 K, 3360 kPa | 1303
323.14 K, 3380 kPa | 1303.3
323.14 K, 3410 kPa | 1303.5
323.14 K, 3440 kPa | 1303.9
323.14 K, 3470 kPa | 1304.1
323.14 K, 3480 kPa | 1304.3
323.14 K, 3510 kPa | 1304.5
323.14 K, 3530 kPa | 1304.8
323.14 K, 3550 kPa | 1305
323.14 K, 3570 kPa | 1305.4
323.14 K, 3600 kPa | 1305.5
323.14 K, 3640 kPa | 1306.1
323.14 K, 3660 kPa | 1306.3
323.14 K, 3680 kPa | 1306.5
323.14 K, 3700 kPa | 1306.7
323.14 K, 3720 kPa | 1307
323.14 K, 3750 kPa | 1307.2
323.14 K, 3770 kPa | 1307.5
323.14 K, 3790 kPa | 1307.7
323.14 K, 3810 kPa | 1308
323.14 K, 3840 kPa | 1308.2
323.14 K, 3860 kPa | 1308.5
323.14 K, 3880 kPa | 1308.7
323.14 K, 3900 kPa | 1309
323.14 K, 3920 kPa | 1309.1
323.14 K, 3950 kPa | 1309.4
323.14 K, 3970 kPa | 1309.8
323.14 K, 4000 kPa | 1309.9
323.14 K, 4020 kPa | 1310.2
323.14 K, 4040 kPa | 1310.3
323.14 K, 4070 kPa | 1310.7
